Data reported in patent US11576979B2, “Pyrrolobenzodiazepine prodrugs and antibody conjugates thereof” (GENENTECH, INC., priority 2016, dated 2023).

Columns and labels:
[1] = system: SK-BR-3; test: CellTiter-Glo toxicity, 3 days (Example 7); format: cell-based; conditions: Homo sapiens, SK-BR-3, 72 h; 3 days; read-out: SK-BR-3 IC50
Method: The toxicity of PBD monomer disulfide prodrugs 1 to 4, PBD dimer disulfide prodrugs 1 and 4, PBD monomer control 1 and PBD dimer control 1 were evaluated against SK-BR-3 cell cultures. […] The HER2-positive breast cancer cell line, SK-BR-3, was obtained internally at Genentech after having been verified by sequence analysis. The cells were grown at 37 Celsius in DMEM+10% FBS supplemented with 2 mM L-glutamine for the duration of this assay. On the first day of the experiment, designated “Day −1”, SK-BR-3 cells were harvested from tissue culture flasks, counted, and then seeded into 96-well plates at a concentration of 7,500 cells per well. The next day, designated “Day 0”, cell culture media was removed from the cells and replaced with 100 uL of fresh media containing a serial dilution (1:3) of the compounds in Table 5 below. The plates were then returned to the 37 Celsius incubator and allowed to incubate for 3 days. On “Day 3” of the assay, the plates were removed from the incubator and allowed to equilibrate to room temperature before adding 100 uL of room-temperature CellTiter-Glo reagent (Promega). The plates were then agitated at 300 rpm for 10 minutes. The luminescence signal generated from this reaction was recorded on an Envision plate reader (Perkin-Elmer). The data were arranged in Excel (Microsoft) and graphed in Kaleidagraph (Synergy Software).

[2] = system: MDA-MB-453 tumor cell line; test: in vitro tumor cell killing assay, 3 days (Example 13); format: cell-based; conditions: Homo sapiens, 72 h; MDA-MB-453; 3 days; read-out: EC50
Method: The toxicity of various PBD monomer and dimer boronic acid prodrug compounds were evaluated for cell toxicity. In the in vitro tumor cell killing assay, the cells were added to each well of 96-well microtiter plates at 8,000 cells per well and were incubated overnight at 37° C. in a humidified atmosphere of 5% CO2. The cells were exposed to various concentration of the indicated prodrug, positive control and negative control compounds. Where silvestrol was evaluated, a 1:3 serial dilution was used. After incubation for 3 days, Cell titer-Glo reagent (Promega, Madison Wis.) was added to the wells at 100 μL per well followed by a 10-minute incubation at room temperature, and the luminescent signal was measured using a Packard/Perkin-Elmer TopCount.
The toxicity of PBD monomer boronic acid prodrug 1 was evaluated against MDA-MB-453 tumor cell line for cell viability. PBD monomer control 1 was used as a positive control and PBD monomer control 2 was used as a negative control. The toxicity study was repeated wherein the PBD prodrug and controls were administered in combination with silvestrol. FIG. 15C depicts a plot of MDA-MB-453 cell kill versus drug concentration in μM three days after exposure to: (i) a PBD monomer control; (ii) a PBD monomer control having a benzyl formate moiety at the N10 PBD position; and (iii) a PBD monomer boronic acid prodrug. […]

[3] = system: KPL-4 Cell line; test: Cell viability, DTD-activated quinone prodrugs (Example 15); format: cell-based; conditions: KPL4; KPL-4 Cell line (high DTD); Table 10; read-out: IC50 Potency
Method: (§1) The toxicity of PBD dimer diaphorase prodrug 1, PBD monomer diaphorase prodrug 2, PBD dimer control 1 and PBD monomer control 1 were evaluated against KPL-4 and WSU cell lines for cell viability. The KPL-4 cell line is was a high DTD cell line characterized by NQO1 nRPKM of 839 and the WSU cell line was a low DTD cell line characterized by a NQO1 nRPKM of 1.36. The IC50 ratios are based on the prodrug IC50 value relative to the PBD dimer control.

[4] = system: WSU Cell line; test: as above; format: cell-based; conditions: WSU Cell line (low DTD); Table 10; read-out: IC50 Potency
Method: as §1

[5] = system: double strand DNA Oligos 1 and 2; test: DNA oligo binding, LC/MS/UV; conditions: 100 uM compound, 100 uM DNA, 1 hour, 37 C

With `C=C1C[C@H]2C=Nc3cc(OC)c(OC)cc3C(=O)N2C1` [PBD monomer control 1, reference compound] the IC50 [1] was 124 nM, the EC50 [2] was 164 nM and the IC50 [3] was 330 nM. The IC50 [4] was 106 nM and the “% DNA oligo remaining” value [5] was 35%.
